Laboratory results from patent US20100099561A1, “HETEROBICYCLIC ALKYLTHIO-BRIDGED ISOXAZOLINES” (E.I. DU PONT DE NEMOURS AND COMPANY, priority 2008, published 2010).

Assays:
Type in all cases: in vivo
[1] = system: barnyardgrass (Echinochloa crus-galli); assay: Test A preemergence, barnyardgrass; conditions: 0 to 100 scale (0 no effect, 100 complete control)
In short: (§1)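 Visual injury rating, 0 = no effect to 100 = complete control, made roughly ten days after treatment by comparison with untreated controls. Preemergence: directed soil spray onto freshly planted loam/sand. Postemergence: foliar application at one- to two-leaf stage, 2–10 cm height.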

[2] = system: large crabgrass (Digitaria sanguinalis); assay: Test A preemergence, large crabgrass; conditions: 0 to 100 scale (0 no effect, 100 complete control)
In short: as §1

[3] = system: giant foxtail (Setaria faberi); assay: Test A preemergence, giant foxtail; conditions: 0 to 100 scale (0 no effect, 100 complete control)
In short: as §1

[4] = system: morningglory (Ipomoea spp.); assay: Test A preemergence, morningglory; conditions: 0 to 100 scale (0 no effect, 100 complete control)
In short: as §1

[5] = system: pigweed (Amaranthus retroflexus); assay: Test A preemergence, pigweed; conditions: 0 to 100 scale (0 no effect, 100 complete control)
In short: as §1

[6] = system: velvetleaf (Abutilon theophrasti); assay: Test A preemergence, velvetleaf; conditions: 0 to 100 scale (0 no effect, 100 complete control)
In short: as §1

[7] = system: wheat (Triticum aestivum); assay: Test A preemergence, wheat; conditions: 0 to 100 scale (0 no effect, 100 complete control)
In short: as §1

corn (Zea mays) [8] = assay: Test A preemergence, corn; conditions: 0 to 100 scale (0 no effect, 100 complete control)
In short: as §1

[9] = system: barnyardgrass (Echinochloa crus-galli); assay: Test A postemergence, barnyardgrass; conditions: 0 to 100 scale (0 no effect, 100 complete control)
In short: as §1

[10] = system: large crabgrass (Digitaria sanguinalis); assay: Test A postemergence, large crabgrass; conditions: 0 to 100 scale (0 no effect, 100 complete control)
In short: as §1

[11] = system: giant foxtail (Setaria faberi); assay: Test A postemergence, giant foxtail; conditions: 0 to 100 scale (0 no effect, 100 complete control)
In short: as §1

[12] = system: morningglory (Ipomoea spp.); assay: Test A postemergence, morningglory; conditions: 0 to 100 scale (0 no effect, 100 complete control)
In short: as §1

[13] = system: pigweed (Amaranthus retroflexus); assay: Test A postemergence, pigweed; conditions: 0 to 100 scale (0 no effect, 100 complete control)
In short: as §1

[14] = system: velvetleaf (Abutilon theophrasti); assay: Test A postemergence, velvetleaf; conditions: 0 to 100 scale (0 no effect, 100 complete control)
In short: as §1

[15] = system: wheat (Triticum aestivum); assay: Test A postemergence, wheat; conditions: 0 to 100 scale (0 no effect, 100 complete control)
In short: as §1

corn (Zea mays) [16] = assay: Test A postemergence, corn; conditions: 0 to 100 scale (0 no effect, 100 complete control)
In short: as §1

rice (Oryza sativa) = assay: Test B flooded paddy test, rice; conditions: Flood, scale 0 to 100
In short: (§2)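 Paddy-water application to 2-leaf plants in pots held under 3 cm of flooding; response is a 0–100 visual control rating against controls after 13 to 15 days, and a dash marks a missing result.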

[17] = system: umbrella sedge (Cyperus difformis); assay: Test B flooded paddy test, umbrella sedge; conditions: Flood, scale 0 to 100
In short: as §2

[18] = system: ducksalad (Heteranthera limosa); assay: Test B flooded paddy test, ducksalad; conditions: Flood, scale 0 to 100
In short: as §2

[19] = system: barnyardgrass (Echinochloa crus-galli); assay: Test B flooded paddy test, barnyardgrass; conditions: Flood
In short: as §2

[20] = 250 g ai/ha, scale 0 to 100 (0 no effect, 100 complete control)

Row | Compound | Plant response rating, Barnyardgrass ([1]; 125 g ai/ha) | Plant response rating, Barnyardgrass ([1]; 500 g ai/ha) | Plant response rating, Crabgrass, Large ([2]; 125 g ai/ha) | Plant response rating, Crabgrass, Large ([2]; 500 g ai/ha) | Plant response rating, Foxtail, Giant ([3]; 125 g ai/ha) | Plant response rating, Foxtail, Giant ([3]; 500 g ai/ha) | Plant response rating, Morningglory ([4]; 125 g ai/ha) | Plant response rating, Morningglory ([4]; 500 g ai/ha) | Plant response rating, Pigweed ([5]; 125 g ai/ha) | Plant response rating, Pigweed ([5]; 500 g ai/ha) | Plant response rating, Velvetleaf ([6]; 125 g ai/ha) | Plant response rating, Velvetleaf ([6]; 500 g ai/ha) | Plant response rating, Wheat ([7]; 125 g ai/ha) | Plant response rating, Wheat ([7]; 500 g ai/ha) | Plant response rating, Corn (corn (Zea mays) [8]; 125 g ai/ha) | Plant response rating, Corn (corn (Zea mays) [8]; 500 g ai/ha) | Plant response rating, Barnyardgrass ([9]; 125 g ai/ha) | Plant response rating, Barnyardgrass ([9]; 500 g ai/ha) | Plant response rating, Crabgrass, Large ([10]; 125 g ai/ha) | Plant response rating, Crabgrass, Large ([10]; 500 g ai/ha) | other results
1 | Cc1con2c(=O)c(C[S+]([O-])C3=NOC(C)(C)C3)c(C(F)(F)F)nc12 (centres unmarked) [Compound 47] | 0 | 70 | 0 | 20 | 0 | 30 | 0 | 0 | 0 | 0 | 0 | 0 | 0 | 0 | 0 | 0 | 0 | 50 | 0 | 60 | Plant response rating, Foxtail, Giant ([11]; 125 g ai/ha): 0; Plant response rating, Foxtail, Giant ([11]; 500 g ai/ha): 60; Plant response rating, Morningglory ([12]; 125 g ai/ha): 0; Plant response rating, Morningglory ([12]; 500 g ai/ha): 20; Plant response rating, Pigweed ([13]; 125 g ai/ha): 0; Plant response rating, Pigweed ([13]; 500 g ai/ha): 0; Plant response rating, Velvetleaf ([14]; 125 g ai/ha): 0; Plant response rating, Velvetleaf ([14]; 500 g ai/ha): 0; Plant response rating, Wheat ([15]; 125 g ai/ha): 0; Plant response rating, Wheat ([15]; 500 g ai/ha): 0; Plant response rating, Corn (corn (Zea mays) [16]; 125 g ai/ha): 0; Plant response rating, Corn (corn (Zea mays) [16]; 500 g ai/ha): 20; Plant response rating, Rice (rice (Oryza sativa); 62 g ai/ha): 0; Plant response rating, Rice (rice (Oryza sativa); 250 g ai/ha): 0; Plant response rating, Sedge, Umbrella ([17]; 62 g ai/ha): 0; Plant response rating, Sedge, Umbrella ([17]; 250 g ai/ha): 0; Plant response rating, Ducksalad ([18]; 62 g ai/ha): 0; Plant response rating, Ducksalad ([18]; 250 g ai/ha): 0; Plant response rating, Barnyardgrass ([19]; 62 g ai/ha, scale 0 to 100): 0; Plant response rating, Barnyardgrass [19, 20]: 0
2 | Cc1cc2nc(C(F)(F)F)c(C[S+]([O-])C3=NOC(C)(C)C3)c(=O)n2o1 (centres unmarked) [Compound 50] | 0 | 70 | 0 | 70 | 0 | 70 | 0 | 0 | 0 | 0 | 0 | 0 | 0 | 0 | 0 | 0 | 0 | 60 | 0 | 50 | Plant response rating, Foxtail, Giant ([11]; 125 g ai/ha): 0; Plant response rating, Foxtail, Giant ([11]; 500 g ai/ha): 60; Plant response rating, Morningglory ([12]; 125 g ai/ha): 0; Plant response rating, Morningglory ([12]; 500 g ai/ha): 10; Plant response rating, Pigweed ([13]; 125 g ai/ha): 0; Plant response rating, Pigweed ([13]; 500 g ai/ha): 0; Plant response rating, Velvetleaf ([14]; 125 g ai/ha): 0; Plant response rating, Velvetleaf ([14]; 500 g ai/ha): 0; Plant response rating, Wheat ([15]; 125 g ai/ha): 0; Plant response rating, Wheat ([15]; 500 g ai/ha): 0; Plant response rating, Corn (corn (Zea mays) [16]; 125 g ai/ha): 0; Plant response rating, Corn (corn (Zea mays) [16]; 500 g ai/ha): 30; Plant response rating, Rice (rice (Oryza sativa); 62 g ai/ha): 0; Plant response rating, Rice (rice (Oryza sativa); 250 g ai/ha): 0; Plant response rating, Sedge, Umbrella ([17]; 62 g ai/ha): 0; Plant response rating, Sedge, Umbrella ([17]; 250 g ai/ha): 0; Plant response rating, Ducksalad ([18]; 62 g ai/ha): 0; Plant response rating, Ducksalad ([18]; 250 g ai/ha): 0; Plant response rating, Barnyardgrass ([19]; 62 g ai/ha, scale 0 to 100): 0; Plant response rating, Barnyardgrass [19, 20]: 0
